{"source": "patent US12178859B2", "about": "“Anti inflammatory composition” (WAKO FILTER TECHNOLOGY CO., LTD., priority 2019, dated 2024)", "key": {"[1]": {"tested_on": "human neutrophil suspension", "test": "Neutrophil adhesion test with LPS-activated human neutrophils (96-well plate, crystal violet, OD620)", "format": "cell-based", "conditions": "human neutrophils activated with E. coli lipopolysaccharide, 1 hour at 37° C.; control = 100%; FIG. 2A / FIG. 2B", "method": "(§1) Neutrophils were collected from blood. Specifically, neutrophils were isolated from whole blood collected from healthy humans or dogs using Polymorphprep (Cosmo Bio). The separated neutrophil samples were centrifuged at 2000 rpm for about 40 minutes, then the supernatant was removed, and the residue was transferred to RPMI (SIGMA) medium supplemented with 10-mass % fetal bovine serum (Tissue Culture Biologicals, USA) and diluted to obtain a cell count of 4×10^6 cells/ml, preparing human and canine neutrophil suspensions, respectively. […] The neutrophil adhesion rate was determined as follows. The value obtained by quantifying the activated neutrophils adhered to the wells in the control without containing lysozyrne-chitosan complex or decanoic acid was set as 100%, and compared with the value obtained by quantifying the activated neutrophils adhered to the wells in the same way for the test substances in each Example and Comparative Example. Neutrophil Adhesion Rate (%)=[Quantitative Value of Adhesive Activated Neutrophils in Each Example and Comparative Example]/[Quantitative Value of Adhesive Activated Neutrophils in Control]×100 In the present invention, the ability to suppress the neutrophil adhesive reaction was evaluated by the following procedure. […]"}, "[2]": {"tested_on": "canine neutrophil suspension", "test": "Neutrophil adhesion test with LPS-activated canine neutrophils (96-well plate, crystal violet, OD620 and microscopy)", "format": "cell-based, dogs", "conditions": "0.2 mg/ml lysozyme-chitosan complex and/or 0.4 mg/ml decanoic acid, magnification 40 times, FIG. 3B to 3D", "method": "as §1"}}}
{"compound": "CCCCCCCCCC(=O)O", "note": "[decanoic acid]", "values": [{"measurement": "neutrophil adhesion rate (%) as the concentration of test substance increases", "setting": "[1]", "value": "did not decrease"}, {"measurement": "distribution of adherent neutrophils stained with crystal violet (photomicrograph)", "setting": "[2]", "value": "widely distributed"}]}
